Article PMC8585833, “Serum concentrations of antidepressants, antipsychotics, and antiepileptics over the bariatric surgery procedure” (European Journal of Clinical Pharmacology, 2021)
Where two headings read alike, the source gives them in different places.

What was measured:
[1] = source not stated, cited from earlier work
[2] = Dose-adjusted steady-state trough serum concentrations before and after low-calorie diet and bariatric surgery; format: in vivo, human
Text: We designed the study as a naturalistic longitudinal, prospective case series with intra-individual comparisons of drug concentrations over time, before and up to 1 year after the surgical procedure.
The participants contributed blood samples to the current study during routine pre-surgery visits before, and post-surgery visits about 8 weeks, 6 months, and 1 year after, the surgery. Pre-surgery sampling generally occurred twice: at an initial preoperative assessment visit, and just before surgery. Between these visits, that is, before surgery, patients were required to adhere to a low-calorie diet and show a weight reduction. The samples were stored as serum in −80 °C at a biobank, and analysed after all samples had been collected.
Before every routine visit at which the sampling was to occur, we contacted the participants by telephone to systematically obtain information on the current dose as well as adherence to the drug treatment in question over the 2 preceding weeks. Samples were excluded from the data set if non-adherence less than four elimination half-lives prior to sampling was reported; exceptions were made for occasional missed doses of fluoxetine. Half-lives applied were those described for a drug or its metabolite in the summary of product characteristics. We also asked for and recorded concomitant drug treatment, weight, and smoking status. To be able to relate potential changes in concentration to health consequences, we asked the participants during the follow-up phone calls, using an open question, if anything had happened to their health since the last visit. To obtain trough blood concentrations, we strived to schedule the routine visits before lunchtime and the participants were instructed not to take morning tablets before the sampling.
Specific substances were analysed concomitantly, using clinical routine methods, at accredited laboratories at the Department of Clinical Chemistry, Sahlgrenska University Hospital, Gothenburg, Sweden, or (as for gabapentin, hydroxybupropion, mianserine, pregabalin, paroxetine and topiramate) at the Department of Clinical Pharmacology, St. Olav’s Hospital, Trondheim, Norway. Analysis methods were based on liquid chromatography/tandem mass spectrometry or (for lamotrigine and valproic acid) enzyme immunoassay.
(§1) Statistical analyses were performed using SPSS, version 23.0 (IBM SPSS Statistics for Windows, Armonk, NY, USA). Participants treated with the same substance before and after surgery, with one or more trough sample concentrations available, were included in the analysis. To allow interindividual and intraindividual comparisons, serum concentrations were adjusted for defined daily dose (DDD). For example, since DDD for citalopram is 20 mg, a DDD-adjusted citalopram concentration of 100 nmol/L could represent a measured concentration of 50, 100, or 200 nmol/L, given a daily dose of 10, 20, or 40 mg, respectively. To compare pre- to post-surgery concentrations, as well as pre- to post-diet concentrations, we used Wilcoxon signed rank test for substances with samples available for six or more individuals. We used Spearman’s correlation to explore the relationship between the ratio of the post-/pre-diet concentrations and (i) the distribution coefficient for the drug in question, i.e., the logarithm of the ratio of its concentration in a lipophilic and a hydrophilic solution (logD), as well as (ii) the weight loss in kilograms for pregabalin.

[3] = Distribution coefficient (logD), octanol/water; format: physicochemical; settings: two-phase system, pH 7.4; from logD
Procedure: as §1

[4] = historical data or matched non-surgery subjects as controls; cited from earlier work
[5] = selection limit for extremely hydrophilic or extremely lipophilic substances in literature search

For `CN1CCN2c3ccccc3Cc3ccccc3C2C1` (centres unmarked) [Mianserine], which logD ([1]; octanol/water, pH 7.4) is on record?
Its logD is 3.14.

What about the “Dose-adjusted drug concentration Median (IQR), Pre-diet/pre-surgery” value ([2]; human, in vivo) of the same molecule?
The value was 255 (N/A) nmol/L.

What about the “Dose-adjusted drug concentration Median (IQR), post-diet” value ([2]; human, in vivo) of the same molecule?
The value was 201 (N/A) nmol/L.

What about the “Dose-adjusted drug concentration Median (IQR), pre-diet” value ([2]; human, in vivo) of the same molecule?
Its value is 255 (N/A) nmol/L.

What about the “Dose-adjusted drug concentration Median (IQR), Post-surgery” value ([2]; human, in vivo, 379 days after surgery (median), trough) of the same molecule?
Its value is 183 (N/A) nmol/L.

What about the “Abundance in octanol relative to water” value [3] of the same molecule?
Its value is “more than 1 000 fold”.

For `CC(C)C[C@H](CN)CC(=O)O` [Pregabalin], which logD ([1]; octanol/water, pH 7.4) is on record?
Its logD is −1.35.

And the “Dose-adjusted drug concentration Median (IQR), Pre-diet/pre-surgery” value ([2]; Table 2A, antiepileptics, trough serum, adjusted for dose in DDDs)?
The value was 8.5 (5.8–16) µmol/L.

What about the “Dose-adjusted drug concentration Median (IQR), post-diet” value ([2]; Table 2B, antiepileptics, trough serum, adjusted for dose in DDDs, after pre-surgery low-calorie diet) of the same molecule?
The value was 25 (8–33) µmol/L.

What about the “Dose-adjusted drug concentration Median (IQR), pre-diet” value ([2]; Table 2B, antiepileptics, trough serum, adjusted for dose in DDDs, before low-calorie diet) of the same molecule?
The value was 9.5 (7–21) µmol/L.

What about the “Change in dose-adjusted concentration over the pre-surgery low-calorie diet” value ([2]; after the pre-surgery diet, before surgery, median weight reduction 6 kg) of the same molecule?
The value was “increased”.

And the concentration at 379 days after surgery (median), trough ([2]; human, in vivo, Table 2A, antiepileptics, trough serum, adjusted for dose in DDDs, last observation carried forward, median 379 days after surgery, read-out: Dose-adjusted drug concentration Median (IQR), Post-surgery)?
The concentration at 379 days after surgery (median), trough was 13 µM.

What about the “Abundance in water relative to octanol” value [3] of the same molecule?
The value was > 20 fold.

For `CN(C)C(=N)N=C(N)N` [metformin], which “Concentration change after the bariatric surgery procedure” value (shortened to “Concentration change”) [4] is on record?
The value was “appeared to increase”.

Which “Concentration change” value [4] does the source give for `COc1c(N2C[C@@H]3CCCN[C@@H]3C2)c(F)cc2c(=O)c(C(=O)O)cn(C3CC3)c12` [moxifloxacin] here?
Its value is “appeared to increase”.

With `CO[C@H]1C[C@@H]2CC[C@@H](C)[C@@](O)(O2)C(=O)C(=O)N2CCCC[C@H]2C(=O)O[C@H]([C@H](C)C[C@@H]2CC[C@@H](O)[C@H](OC)C2)CC(=O)[C@H](C)/C=C(\C)[C@@H](O)[C@@H](OC)C(=O)[C@H](C)C[C@H](C)/C=C/C=C/C=C/1C` [sirolimus] as the molecule, how does the “Concentration change” value [4] read?
The value was “appeared to decrease”.

And the logD [1, 5]?
Its logD is > 4.

What does the source list for `C=CC[C@@H]1/C=C(\C)C[C@H](C)C[C@H](OC)[C@H]2O[C@@](O)(C(=O)C(=O)N3CCCC[C@H]3C(=O)O[C@H](/C(C)=C/[C@@H]3CC[C@@H](O)[C@H](OC)C3)[C@H](C)[C@@H](O)CC1=O)[C@H](C)C[C@@H]2OC` [tacrolimus]?
Concentration change after the bariatric surgery procedure [4]: appeared to decrease; logD [1, 5]: > 4

With `CC/C(=C(\c1ccccc1)c1ccc(OCCN(C)C)cc1)c1ccccc1` [tamoxifen] as the molecule, how does the “Concentration change” value [4] read?
Its value is “appeared to decrease”.
